Data taken from patent US20160304959A1, “COMPOSITIONS AND METHODS FOR TREATING DIABETIC NEPHROPATHY” (Rush University Medical Center, priority 2013, published 2016).

Key:
[1] = tested on: WT and miR-146a KO DN mice; experiment: TEM of kidney sections for podocyte foot process effacement after STZ; type: in vivo, mouse
Method: We also analyzed the kidney sections using transmission electron microscopy (TEM) to determine if erlotinib treatment provided protection of podocytes from foot process effacement. TEM was performed according to the standard protocols (Sever, S. et al. J Clin. Invest. 117, 2095-2104 (2007)).

ErbB4 = ErbB4 (Homo sapiens, UniProt Q15303); conditions: cited from earlier work; for Affinity and selectivity for ErbB4 versus EGFR: pan-ErbB inhibitors; for Inhibition of ErbB4 (affinity): ref. 77 for JNJ
[2] = tested on: DN prone miR-146a KO animals; experiment: STZ-induced diabetic nephropathy in miR-146a KO animals, albuminuria; type: in vivo, mouse; conditions: miR-146a KO + STZ mice, 70 mg/kg I.P. daily from 4 weeks post-STZ
Method: We investigated the role of miR-146 in diabetic nephropathy (DN) using the miR-146a KO animals and a DN mouse model. Streptozotocin (STZ) treatment (125 mg/kg, two doses 3 days apart) induced similar levels of hyperglycemia in both WT and miR146a KO animals (FIG. 7).
To determine if inhibiting ErbB4 using ErbB4 erlotinib would be beneficial and protect animals from DN, we administered Erlotinib (70 mg/kg in saline/Kolliphor, Tween, I.P., daily) in DN prone miR-146a KO animals starting at 4 weeks post-STZ.

podocytes = experiment: Podocytes treated with TGFβ and co-treated with ErbB4 inhibitor (qRT-PCR, immunofluorescence); type: cell-based, mouse; conditions: podocytes treated with TGFb plus inhibitor, 2 h
Method: FIG. 5A is a bar graph showing qRT-PCR based analysis of levels of various RNAs in podocytes cultured in normal glucose (5 mM) v/s treatment with HG (30 mM) for 2 h or 24 h (Notch-1). FIG. 5B is a bar graph showing qRT-PCR based analysis of levels of various RNAs in podocytes cultured in normal media or treated with TGFb in the absence or presence of ErbB4 inhibitor (JNJ) for 2 h. FIG. 5C provides representative immunofluorescence images showing podocytes cultured in normal media or treated with TGFb in the absence or presence of ErbB4 inhibitor (JNJ) for 2 h and stained for paxillin, synpo or ErbB4.

ErbB4, sequence (Q15303 26-1308): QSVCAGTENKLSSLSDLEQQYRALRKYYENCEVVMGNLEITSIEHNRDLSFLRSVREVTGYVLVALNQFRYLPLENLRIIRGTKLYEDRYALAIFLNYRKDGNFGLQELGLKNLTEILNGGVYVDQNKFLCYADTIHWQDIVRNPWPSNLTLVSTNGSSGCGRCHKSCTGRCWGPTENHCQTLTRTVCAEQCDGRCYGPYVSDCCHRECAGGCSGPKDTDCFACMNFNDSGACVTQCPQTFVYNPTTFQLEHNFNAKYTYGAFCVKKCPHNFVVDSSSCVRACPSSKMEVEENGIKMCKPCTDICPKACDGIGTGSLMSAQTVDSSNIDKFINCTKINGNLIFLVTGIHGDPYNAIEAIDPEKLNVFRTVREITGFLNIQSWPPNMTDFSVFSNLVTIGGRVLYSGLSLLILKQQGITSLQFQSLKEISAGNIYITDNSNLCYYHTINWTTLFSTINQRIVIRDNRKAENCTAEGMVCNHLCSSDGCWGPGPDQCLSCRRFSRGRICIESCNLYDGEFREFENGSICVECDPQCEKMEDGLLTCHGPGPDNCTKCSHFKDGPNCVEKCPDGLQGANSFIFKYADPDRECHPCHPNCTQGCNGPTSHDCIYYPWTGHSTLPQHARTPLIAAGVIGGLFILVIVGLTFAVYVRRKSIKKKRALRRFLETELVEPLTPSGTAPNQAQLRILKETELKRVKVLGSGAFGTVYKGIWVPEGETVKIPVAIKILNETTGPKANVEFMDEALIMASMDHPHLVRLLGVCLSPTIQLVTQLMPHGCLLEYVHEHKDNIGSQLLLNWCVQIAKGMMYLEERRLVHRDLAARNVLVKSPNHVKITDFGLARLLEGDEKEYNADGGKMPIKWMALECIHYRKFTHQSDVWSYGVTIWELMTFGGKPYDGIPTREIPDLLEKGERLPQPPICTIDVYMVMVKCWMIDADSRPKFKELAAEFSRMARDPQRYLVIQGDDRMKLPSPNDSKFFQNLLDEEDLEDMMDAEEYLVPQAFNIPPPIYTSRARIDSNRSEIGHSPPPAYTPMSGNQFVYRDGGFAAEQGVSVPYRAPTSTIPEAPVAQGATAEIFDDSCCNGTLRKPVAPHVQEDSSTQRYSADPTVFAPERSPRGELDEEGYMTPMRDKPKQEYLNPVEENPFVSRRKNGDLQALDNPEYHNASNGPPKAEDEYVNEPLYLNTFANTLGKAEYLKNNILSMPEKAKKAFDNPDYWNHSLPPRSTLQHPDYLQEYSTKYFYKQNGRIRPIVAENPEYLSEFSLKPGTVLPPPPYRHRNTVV

Structure (SMILES) | Podocyte foot process effacement (TEM) ([1]; WT mice after STZ) | Podocyte foot process effacement (TEM) ([1]; miR-146a KO DN mice) | Affinity and selectivity for ErbB4 versus EGFR (ErbB4) | Proteinuria (albuminuria) [2] | Reversal of deleterious expression changes induced by TGFβ (mRNA and protein level) (podocytes) | Inhibition of ErbB4 (affinity) (ErbB4)
C#Cc1cccc(Nc2ncnc3cc(OCCOC)c(OCCOC)cc23)c1 [Erlotinib] | significantly reduced podocyte foot process effacement | significantly reduced podocyte foot process effacement | high affinity and selectivity for ErbB4 | significantly reduced proteinuria (albuminuria) | – | –
CS(=O)(=O)CCNCc1ccc(-c2ccc3ncnc(Nc4ccc(OCc5cccc(F)c5)c(Cl)c4)c3c2)o1 [Lapatinib] | – | – | much more effective against EGFR v/s ErbB4 | – | less effective | only weakly effective on ErbB4
CNc1cc2c(Nc3cccc(Br)c3)ncnc2cn1 [PD158780] | – | – | high affinity and selectivity for ErbB4 | – | – | –
Cl.Nc1ncnc(Nc2ccc(OCc3ccccc3)c(Cl)c2)c1/C=N/OCCN1CCOCC1 [JNJ28871063] | – | – | high affinity and selectivity for ErbB4 | – | reversed the deleterious expression changes induced by TGFβ | nanomolar affinity
